Series [1] relates to Ochrobactrum. The experiment in a line: Antibacterial activity against Ochrobactrum after 18 to 20 hr by serial broth dilution method. The class given is functional.
Series [2] has as its system Staphylococcus aureus. Nature of the series: Antibacterial activity against Staphylococcus aureus after 18 to 20 hr by serial broth dilution method. The class given is functional.
The test system of series [3] is Ochrobactrum. The experiment in a line: Antibacterial activity against Ochrobactrum at 1 mg/ml after 24 hr by agar well diffusion assay. The class given is functional. Particulars: read-out: IZ; call rule not given here.
The test system of series [4] is Pantoea dispersa. The experiment in a line: Antibacterial activity against Pantoea dispersa after 18 to 20 hr by serial broth dilution method. The class given is functional.
Series [5] relates to Staphylococcus aureus. Nature of the series: Antibacterial activity against Staphylococcus aureus at 1 mg/ml after 24 hr by agar well diffusion assay. It is filed as functional. Particulars: read-out: IZ.
In series [6] the test system is Enterococcus. The experiment in a line: Antibacterial activity against Enterococcus after 18 to 20 hr by serial broth dilution method. The class given is functional.
Series [7] has as its system Pantoea dispersa. Nature of the series: Antibacterial activity against Pantoea dispersa at 1 mg/ml after 24 hr by agar well diffusion assay. It is filed as functional. Particulars: read-out: IZ.
Series [8] deals with Enterococcus. The experiment in a line: Antibacterial activity against Enterococcus at 1 mg/ml after 24 hr by agar well diffusion assay. Particulars: read-out: IZ. The class given is functional.
The subject of series [9] is Radical scavenging activity. The experiment in a line: Antioxidant activity assessed as DPPH radical scavenging activity […] after 30 min by spectrophotometric analysis. The class given is functional.
The nature of series [10]: Metal chelating activity assessed as inhibition of Fe2+-ferrozine complex at 0.5 to 2 mg/ml after 10 min by spectrophotometric analysis. The class given is physicochemical.

≈ marks a conversion by molar mass, not a printed value. A value given as a limit tells only on which side of the number the result lay.

Turning to `Cc1nccn1C(=O)c1cc(-c2cc3ccccc3o2)nc2ccccc12`, the MIC in the series with Ochrobactrum [1] is 250 µg/mL (≈ 707 µM); in the series on Staphylococcus aureus [2], greater than 500 µg/mL; in the series with Pantoea dispersa [4], 250 µg/mL (≈ 707 µM); in the series with Enterococcus [6] it was greater than 500 µg/mL. For the same compound, the zone of inhibition at 1000 µg/mL with Ochrobactrum [3] turned out to be 12 mm; with Staphylococcus aureus [5] it was 8 mm; in the series on Pantoea dispersa [7] it was 15 mm; with Enterococcus [8], 9 mm.

Regarding `O=C(Oc1ccccc1Cl)c1cc(-c2cc3ccccc3o2)nc2ccccc12`, the MIC in the series with Ochrobactrum [1] came to 250 µg/mL (≈ 625 µM); in the series on Staphylococcus aureus [2], 500 µg/mL (≈ 1250 µM); against Pantoea dispersa [4], 120 µg/mL (≈ 300 µM); in the series with Enterococcus [6], 500 µg/mL (≈ 1250 µM). Besides, the zone of inhibition at 1000 µg/mL in the series on Ochrobactrum [3] is 14 mm; in the series on Staphylococcus aureus [5] it was 12 mm; with Pantoea dispersa [7], 16 mm; with Enterococcus [8], 10 mm. Also, the IC50 in series [9] is greater than 100 µg/mL.

Regarding `O=C(Oc1ccc(Br)cc1)c1cc(-c2cc3ccccc3o2)nc2ccccc12`, the MIC in the series on Ochrobactrum [1] turned out to be 250 µg/mL (≈ 563 µM); against Staphylococcus aureus [2], 60 µg/mL (≈ 135 µM); in the series with Pantoea dispersa [4] it was 500 µg/mL (≈ 1130 µM); against Enterococcus [6], 60 µg/mL (≈ 135 µM). Moreover, the “inhibition (INH)” value in [10] is given as “Active”. Further, the zone of inhibition at 1000 µg/mL with Ochrobactrum [3] worked out at 15 mm; with Staphylococcus aureus [5], 18 mm; with Pantoea dispersa [7], 14 mm; in the series with Enterococcus [8], 16 mm.

As for `O=C(c1cc(-c2cc3ccccc3o2)nc2ccccc12)N1CCCCC1`, the MIC in the series on Ochrobactrum [1], against Staphylococcus aureus [2], against Pantoea dispersa [4] and against Enterococcus [6] was greater than 500 µg/mL in each case. Moreover, the zone of inhibition at 1000 µg/mL in the series on Ochrobactrum [3] turned out to be 9 mm; in the series with Staphylococcus aureus [5], 11 mm; in the series with Pantoea dispersa [7], 10 mm; with Enterococcus [8] it was 7 mm.

Take `O=C(c1cc(-c2cc3ccccc3o2)nc2ccccc12)N1CCOCC1`: the MIC against Ochrobactrum [1] was 500 µg/mL (≈ 1400 µM); with Staphylococcus aureus [2], greater than 500 µg/mL; in the series with Pantoea dispersa [4], 250 µg/mL (≈ 698 µM); against Enterococcus [6], 120 µg/mL (≈ 335 µM). The zone of inhibition at 1000 µg/mL in the series on Ochrobactrum [3] stood at 11 mm; with Staphylococcus aureus [5] it was 10 mm; in the series with Pantoea dispersa [7], 13 mm; in the series with Enterococcus [8], 13 mm.

Consider `O=C(Oc1cccc2ccccc12)c1cc(-c2cc3ccccc3o2)nc2ccccc12`, for which the MIC with Ochrobactrum [1] turned out to be 500 µg/mL (≈ 1200 µM); against Staphylococcus aureus [2], 250 µg/mL (≈ 602 µM); in the series on Pantoea dispersa [4] it was 120 µg/mL (≈ 289 µM); against Enterococcus [6], 500 µg/mL (≈ 1200 µM). In addition, in [10], the “inhibition (INH)” value is recorded as “Active”. Besides, the zone of inhibition at 1000 µg/mL worked out at 11 mm in the series on Ochrobactrum [3], 14 mm in the series on Staphylococcus aureus [5], 15 mm in the series on Pantoea dispersa [7] and 13 mm with Enterococcus [8]. The IC50 in series [9] was 45.6 µg/mL (≈ 110 µM).

In the case of `O=C(Oc1ccccc1)c1cc(-c2cc3ccccc3o2)nc2ccccc12`, the MIC against Ochrobactrum [1] is 60 µg/mL (≈ 164 µM); against Staphylococcus aureus [2], 60 µg/mL (≈ 164 µM); against Pantoea dispersa [4], 120 µg/mL (≈ 328 µM); with Enterococcus [6] it was 120 µg/mL (≈ 328 µM). Further, the “inhibition (INH)” value in series [10] was “Active”. The zone of inhibition at 1000 µg/mL with Ochrobactrum [3] was 16 mm; with Staphylococcus aureus [5], 16 mm; in the series with Pantoea dispersa [7] it was 18 mm; with Enterococcus [8], 12 mm.

On to `O=C(Oc1c(Cl)cc(Cl)cc1Cl)c1cc(-c2cc3ccccc3o2)nc2ccccc12`, for which the MIC worked out at 500 µg/mL (≈ 1070 µM) against Ochrobactrum [1], 500 µg/mL (≈ 1070 µM) in the series with Staphylococcus aureus [2], 250 µg/mL (≈ 533 µM) in the series with Pantoea dispersa [4] and 500 µg/mL (≈ 1070 µM) with Enterococcus [6]. Further, the zone of inhibition at 1000 µg/mL with Ochrobactrum [3] worked out at 12 mm; in the series on Staphylococcus aureus [5], 12 mm; in the series with Pantoea dispersa [7] it was 14 mm; in the series on Enterococcus [8], 10 mm. Also, in series [9], the IC50 turned out to be 24.34 µg/mL (≈ 51.9 µM).

Take `O=C(Oc1ccc(Cl)cc1Cl)c1cc(-c2cc3ccccc3o2)nc2ccccc12`: the MIC came out at 120 µg/mL (≈ 276 µM) in the series on Ochrobactrum [1], 250 µg/mL (≈ 576 µM) against Staphylococcus aureus [2], 120 µg/mL (≈ 276 µM) in the series on Pantoea dispersa [4] and 250 µg/mL (≈ 576 µM) in the series on Enterococcus [6]. Besides, the zone of inhibition at 1000 µg/mL is 14 mm in the series on Ochrobactrum [3], 14 mm in the series on Staphylococcus aureus [5], 16 mm in the series with Pantoea dispersa [7] and 11 mm with Enterococcus [8].

For the compound `O=C(Oc1ccc2ccccc2c1)c1cc(-c2cc3ccccc3o2)nc2ccccc12`, the MIC was greater than 500 µg/mL against Ochrobactrum [1], 500 µg/mL (≈ 1200 µM) against Staphylococcus aureus [2], 250 µg/mL (≈ 602 µM) against Pantoea dispersa [4] and greater than 500 µg/mL against Enterococcus [6]. In [10], the “inhibition (INH)” value is recorded as “Active”. The zone of inhibition at 1000 µg/mL was 12 mm in the series with Ochrobactrum [3], 12 mm with Staphylococcus aureus [5], 12 mm in the series with Pantoea dispersa [7] and 10 mm in the series on Enterococcus [8]. The IC50 in series [9] worked out at 15.6 µg/mL (≈ 37.5 µM).

Turning to `CC1(C)S[C@@H]2[C@H](NC(=O)[C@H](N)c3ccccc3)C(=O)N2[C@H]1C(=O)O` [AMPICILLIN], the MIC against Ochrobactrum [1], with Staphylococcus aureus [2], against Pantoea dispersa [4] and against Enterococcus [6] was 60 µg/mL (≈ 172 µM) throughout. Also, the zone of inhibition at 1000 µg/mL in the series on Ochrobactrum [3] was found to be 21 mm; in the series on Staphylococcus aureus [5], 20 mm; with Pantoea dispersa [7], 20 mm; with Enterococcus [8], 24 mm.

For the compound `Cc1ccccc1OC(=O)c1cc(-c2cc3ccccc3o2)nc2ccccc12`, the MIC was 25 µg/mL (≈ 65.9 µM) against Ochrobactrum [1], 60 µg/mL (≈ 158 µM) with Staphylococcus aureus [2], 120 µg/mL (≈ 316 µM) in the series with Pantoea dispersa [4] and 60 µg/mL (≈ 158 µM) against Enterococcus [6]. Moreover, the zone of inhibition at 1000 µg/mL in the series with Ochrobactrum [3] stood at 18 mm; in the series on Staphylococcus aureus [5] it was 17 mm; in the series with Pantoea dispersa [7], 19 mm; in the series on Enterococcus [8], 16 mm.

As for `O=C(Oc1ccc(Cl)cc1)c1cc(-c2cc3ccccc3o2)nc2ccccc12`, the MIC against Ochrobactrum [1] amounted to 60 µg/mL (≈ 150 µM); in the series on Staphylococcus aureus [2] it was 120 µg/mL (≈ 300 µM); with Pantoea dispersa [4], 60 µg/mL (≈ 150 µM); in the series on Enterococcus [6], 120 µg/mL (≈ 300 µM). In [10], the “inhibition (INH)” value is given as “Active”. Further, the zone of inhibition at 1000 µg/mL in the series with Ochrobactrum [3] worked out at 17 mm; in the series with Staphylococcus aureus [5] it was 17 mm; in the series on Pantoea dispersa [7], 18 mm; with Enterococcus [8] it was 14 mm.

With `Cc1ccc(OC(=O)c2cc(-c3cc4ccccc4o3)nc3ccccc23)cc1`, the MIC against Ochrobactrum [1] was determined as 60 µg/mL (≈ 158 µM); against Staphylococcus aureus [2], 60 µg/mL (≈ 158 µM); against Pantoea dispersa [4], 250 µg/mL (≈ 659 µM); against Enterococcus [6], 60 µg/mL (≈ 158 µM). Further, the “inhibition (INH)” value in [10] is “Active”. Also, the zone of inhibition at 1000 µg/mL in the series on Ochrobactrum [3] is 20 mm; in the series on Staphylococcus aureus [5] it was 19 mm; with Pantoea dispersa [7], 13 mm; in the series on Enterococcus [8] it was 19 mm. The IC50 in [9] worked out at 49.5 µg/mL (≈ 130 µM).

For the origin of these results see ChEMBL document CHEMBL3045668, “Synthesis, antioxidant, and antibacterial studies of phenolic esters and amides of 2-(1-benzofuran-2-yl) quinoline-4-carboxylic acid” (Med Chem Res, 2013).
